Experiment: gradient 5% acetonitrile 3 min, to 50% in 2 min, to 85% in 15 min, held 3 min, 100 µL/min
Settings: column: Zorbax Extend-C18 2.1 x 50 mm; eluents: water / acetonitrile, 0.1% formic acid
How it was run: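 Standards, all pure, were combined into mixtures of ~100 molecules and run at 100 μL/min on a Zorbax Extend-C18 column (2.1 × 50 mm, 1.8 μm) with water and acetonitrile, each containing 0.1% formic acid. A coupled quadrupole time-of-flight mass spectrometer operated in positive and negative ionization mode. Retention time values come from computationally picked adduct peaks, each inspected manually.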

Compound | RP-LC retention time
Cc1ccsc1C(=O)N1CCN(C(=O)c2cc(-c3ccccn3)n[nH]2)CC1 | 631 s
O=C(CSc1cc(-c2nc(-c3ccccc3)no2)ccn1)N1CCCC1 | 941 s
O=C(C1CCN(c2ncnc3c2oc2ccccc23)CC1)N1CCN(c2ccccc2Cl)CC1 | 930 s
Cn1nc(C(=O)N2CCCC2)c2c1CCN(C(=O)Nc1cccc(Br)c1)C2 | 804 s
Cc1ccnn1-c1ccc(SCC(=O)Nc2ccccc2F)nn1 | 869 s
Cc1nn2c(CNC(=O)c3ccc(C)c(C)c3)c(C)nc2s1 | 650 s
Cc1c(S(=O)(=O)NCCC2CCN(C(=O)c3ccc(F)cc3)CC2)cnn1C(F)F | 813 s
CC(NC(=O)c1cn2c(n1)CSCC2)c1ccc(F)cc1 (stereo not given) | 638 s
Cc1cc(N2CCN(C)CC2)n2nc(CN3CCN(c4cccc(C)c4C)CC3)nc2n1 | 570 s
CCn1nnc2ccc(-c3noc(Cc4ccc(OC)c(OC)c4)n3)cc21 | 864 s
Cc1ccc(CN2C(=O)NC3(CCN(C(=O)c4cccn4C)CC3)C2=O)cc1 | 787 s
COc1ccc(NC(=O)c2noc3c2CCCC3)cc1OC | 842 s
Cc1ccc(CN2C(=O)CN(S(C)(=O)=O)CC2(C)C(=O)NCc2ccc(F)cc2)cc1 (stereo not given) | 836 s
O=C(O)C1CCN(C(=O)CCc2c[nH]c3ccccc23)CC1 | 662 s
COc1cccc(N2CCN(S(=O)(=O)c3cc(-c4cc(C(F)(F)F)on4)cs3)CC2)c1 | 1200 s
O=C(CCc1ccccc1)Nc1ccc2c(c1)CCCN2C(=O)c1ccco1 | 861 s
CCOC(=O)c1nc2cc(OC)c(OC)cc2[nH]c1=O | 620 s
Cc1nc2ccc(C(=O)N3CCCCCC3)cc2nc1C | 605 s
Cc1ccc(CNC(=O)C2(C)CCCN(C(=O)Nc3cccc(Cl)c3C)C2)cc1 (stereo not given) | 1060 s
Cc1cccc(N2CCN(C(=O)c3sc4ncccc4c3-n3cccc3)CC2)c1 | 1060 s
O=c1c2ccccc2oc2nc(-c3ccco3)n(Cc3ccccc3)c(=O)c12 | 797 s
CCOC(=O)CC(=O)Nc1nc(C2COc3ccccc3O2)cs1 (stereo not given) | 921 s
CCN1C(=O)CC[C@]2(CN(C)C(=O)Cc3cccc(F)c3)CCC[C@@H]12 | 752 s

Compound | RP-LC retention time
CC1(C(=O)NCc2ccccc2)CN(S(=O)(=O)c2ccccc2)CC(=O)N1c1ccc(F)cc1 (stereo not given) | 914 s
CCCn1c(=O)sc2cc(S(=O)(=O)N3CCC(C(=O)N(C)Cc4ccco4)CC3)ccc21 | 901 s
Cc1ccccc1NC(=O)Cn1c(N)nc(C)c(C)c1=O | 596 s
O=S(=O)(c1ccc(-c2nnc(C3CC3)o2)o1)N1CCCC1 | 771 s
Cc1ccc(NC(=O)Cn2c(C(C)C)nc3c(c2=O)CCN(Cc2ccccc2)C3)cc1 | 714 s
Cc1cc(F)ccc1NC(=O)C1CCN(C(=O)C2Sc3ccccc3NC2=O)CC1 (stereo not given) | 738 s
CCn1c(-c2ccccc2)cc(C(N)=O)c1C | 591 s
Fc1cnccc1CN1CC[C@@H]2CN(Cc3ccccc3)[C@@H]2C1 | 597 s
COc1ccc(NC(=O)C2CC(=O)N(c3n[nH]c4cccc(F)c34)C2)cc1Cl (stereo not given) | 752 s
Cc1csc(C(=O)Nc2cccc3ccc(-n4ccnc4)nc23)c1 | 641 s
CCC(C)(C)NS(=O)(=O)c1cc(-c2nc(C)cs2)n(C)c1C | 1010 s
O=C(NC1CCN(c2cc(-c3cccs3)[nH]n2)C1)c1ccc(F)cc1Cl (stereo not given) | 726 s
Cc1ccc(Nc2nc(C)cc3nn(CC(=O)NC4CCCC4)c(=O)n23)cc1 | 640 s
Cc1ccc(N2CCCS2(=O)=O)cc1NC(=O)C1CCCC1 | 696 s
CC(C)CNS(=O)(=O)c1cccc2cnccc12 | 647 s
CCCCS(=O)(=O)N1CCc2nc(-c3ccc(OC)cc3)ncc2C1 | 983 s
O=C(Nc1ccc2c(c1)OCCO2)C1CN(S(=O)(=O)C2CC2)CC12CCCCC2 (stereo not given) | 881 s
O=C(CCc1c(-c2ccc(Cl)cc2)nc2ccccn12)NCCC1=CCCCC1 | 756 s
CC(C)(C)n1cc(C(=O)c2ccccc2)cc1-c1ccccc1 | 1350 s
Cc1ccc(-c2cn3c(CC(=O)Nc4ccc(F)c(Cl)c4)csc3n2)cc1C | 678 s
CCCN(CCC)C(=O)C1COC2(CCN(C(=O)c3ccco3)CC2)N1C(=O)c1ccccc1 (stereo not given) | 778 s
Cc1cccc(N2CCN(C(=O)c3ccnc(N4CCCC4)n3)CC2)c1 | 894 s
CCNC(=O)Nc1ccc(OCC(=O)NC(C)c2ccc(OC)cc2)nc1 (stereo not given) | 701 s

Compound | RP-LC retention time
COc1ccc(N2CCn3c(SCC(=O)Nc4ccccc4C(F)(F)F)nnc32)cc1 | 726 s
Cc1nc2ccccc2c(=O)n1Cc1noc(-c2cccc(Cl)c2)n1 | 913 s
CCOc1ccc(NC(=O)c2oc3cc(C)ccc3c2C)c2cccnc12 | 753 s
O=C1[C@H]2CN(Cc3cc(Cl)ccc3F)C[C@H]2C(=O)N1CCN1CCc2ccccc2C1 | 684 s
Cc1ccc2[nH]cc(CCN3CC(C(=O)N4CCOCC4)CC3=O)c2c1 (stereo not given) | 679 s
CCOc1ccc(-c2nc3ncccn3c2NCc2ccc(F)cc2)cc1 | 759 s
CC(C)c1cc(C(=O)NC2CCCCCC2)n[nH]1 | 836 s
CC(=O)NC(Cc1c[nH]c2ccccc12)C(=O)O (stereo not given) | 605 s
CCOc1ccc(N(CC)C(=O)c2nc(C)n(C3CCN(S(C)(=O)=O)CC3)c2C)cc1 | 640 s
Cn1cc(S(=O)(=O)N2CCC(C(=O)N3CCCC3)CC2)cc1C(=O)N1CCCCC1 | 681 s
O=C(O)Cn1ncc2ccccc2c1=O | 572 s
COc1ccc(N2CCN(c3cc(SCC(=O)Nc4cccc(OC)c4)ncn3)CC2)cc1 | 894 s
CCN1N=C(C(=O)N2CCOCC2)S(=O)(=O)c2cc(Cl)ccc21 | 760 s
O=C(C1CCCO1)N1CC2CN(S(=O)(=O)c3cccc(F)c3)CC(C1)O2 (stereo not given) | 676 s
Cc1nnc(-c2c(S(=O)(=O)NC3CCCCCC3)c(C)n(C)c2C)o1 | 900 s
COc1ncccc1CNC(=O)Cc1cccnc1 | 538 s
Cn1cc(CN2CCN(C(=O)C3CCN(S(=O)(=O)N4CCCC4)CC3)CC2)c2ccccc21 | 655 s
COc1ccccc1OCCNC(=O)COc1ccc(NC(=O)C2CC2)cn1 | 708 s
CCN1CCC(CCNC(=O)C2CCc3sc(C(=O)N4CCCC4)cc3C2)CC1 (stereo not given) | 582 s
CCN1CCCC(Cn2cc(COc3ccc4c(c3)CCC4)nn2)C1 (stereo not given) | 679 s
Cc1ccc(NC(=O)Cn2nc(N3CCCC(C)C3)c3ccccc3c2=O)cc1F (stereo not given) | 1220 s
O=C1NC2(CCN(C(=O)Nc3ccccc3Cl)CC2)Oc2ccccc21 | 765 s
CCCCOc1c(C(=O)c2c(F)cc(C)cc2F)cnc2[nH]ncc12 | 916 s

Compound | RP-LC retention time
CC1(C(=O)NCc2ccccc2)CN(S(=O)(=O)c2ccccc2)CC(=O)N1CCC1=CCCCC1 (stereo not given) | 1090 s
O=C(NC1CCCCCC1)C1CCCN(C(=O)c2ccc(Cl)cc2)C1 (stereo not given) | 904 s
CC1=C(c2ccc(C)cc2)S(=O)(=O)N=C1N1CCC(NC(=O)c2ccoc2)CC1 | 805 s
CCCNC(=O)c1cc(=O)[nH]c2c(Cl)cccc12 | 1080 s
O=c1ccc(-c2ccc3c(c2)OCO3)nn1CCc1nc(-c2cccc(Br)c2)no1 | 1060 s
Cc1ccc(S(=O)(=O)N2C(=O)CCC2C(=O)N(C)C2CCCCC2)cc1 (stereo not given) | 916 s
CCN(CC)S(=O)(=O)c1ccc2c(c1)nnn2CCC(=O)N1CCN(c2ccccn2)CC1 | 616 s
CCOC(=O)C1=C(CN2CCC(C(=O)OCC)CC2)NC(=O)NC1c1ccc(F)cc1 (stereo not given) | 650 s
O=c1ccc(N2CCCN(S(=O)(=O)c3ccc(F)cc3F)CC2)nn1-c1ccc(Cl)cc1 | 966 s
Cc1nnc(CNC(=O)C(C)n2nnc3ccccc3c2=O)o1 (stereo not given) | 577 s
CC1CC(C)CN(c2nccn3c(=O)n(CC(=O)Nc4ccc(F)cc4F)nc23)C1 (stereo not given) | 902 s
Cc1ccc(CNC(=O)C2(C)CN(S(C)(=O)=O)CC(=O)N2c2cccc(Cl)c2)cc1 (stereo not given) | 854 s
CCOc1ccc(CC(=O)N2CCN(c3cc(CC)n4cnnc4n3)CC2)cc1 | 634 s
O=C(NCCc1ccccc1)C1c2ccccc2C(=O)N1Cc1ccc2c(c1)OCO2 (stereo not given) | 865 s
COc1ccc(CNC(=O)c2cccc(N3CCNC(c4ccccc4)C3)n2)cc1 (stereo not given) | 634 s
OCCN1CCN(c2ncnc3c2cnn3-c2ccccc2Cl)CC1 | 592 s
CCc1ccc2c(c1)cc(S(=O)(=O)c1ccccc1)c(=O)n2CC(=O)NC(C)CC (stereo not given) | 945 s
CC(C)c1noc(-c2cc(=O)n(CC(=O)Nc3ccc4c(c3)OCCO4)c3ccccc23)n1 | 941 s
CC1CCCCN1C(=O)c1ccc2c(c1)Sc1ncccc1C(=O)N2C(C)C (stereo not given) | 810 s
Cc1cccc(-c2noc(C3CCCN3S(=O)(=O)c3cccc(Cl)c3C)n2)c1 (stereo not given) | 1310 s
COc1c(C(=O)NCCN2CCCCC2C)sc2ccc(Cl)cc12 (stereo not given) | 716 s
